The values below come from US7556938B1, “Nucleic acids encoding potassium channel interactors” (Millennium Pharmaceuticals, Inc., priority 1998, dated 2009).

The experiment has as its target T1, Kv1.1 (Rattus norvegicus, UniProt P10499).
T1 construct: expressed in transfected cells; host or cells: Xenopus oocytes
In words: AA modulation of Kv1.1 current in Xenopus oocytes. Format: cell-based. The conditions noted are these: Kv1.1 alone, 10 μM AA. The method, then: Frogs underwent no more than two surgeries and surgeries were performed by well established techniques. Frogs were anesthetized with ice. Total cRNA (1-10 ng) was injected into stage IV Xenopus oocytes that were harvested the previous day. The Xenopus oocytes were incubated in ND96 containing (in mM) 96 NaCl, 2 KCl, 1.8 CaCl2, 1 MgCl2, 5 HEPES, pH 7.6, plus (Gentamycin 50 μg/ml) at 18° C. Xenopus oocytes were studied 3-7 days after injection. The two-electrode voltage-clamp recordings were performed in ND96 solution using a TURBO TEC 03 Clamp Amplifier (ALA Scientific Instruments, Westbury, N.Y.). Both electrodes were filled with 3 M KCl and had electrode resistances ranging from 0.2-1 MOhm. The current signals were filtered at 1000 Hz before transferred on a PC (Gateway, Calif.) using the PULSE software (HEKA, Germany).
In this example, the foregoing was tested by measuring two alpha/auxiliary complexes: Kv4.3/KChIP1 and Kv1.1/Kvβ1. (Kvβ1, which is one of the classic potassium channel beta subunits, dramatically changes Kv1.1 kinetics). Kv4.3/KChIP and Kv1.1/Kvβ1 were expressed respectively in Xenopus oocytes and their resulting currents were recorded in the presence or absence of […] AA. […] Kinetically, […] was much more sensitive to AA modulation than was Kv1.1/Kvβ1 (Table 4).

T1 sequence (P10499 whole entry): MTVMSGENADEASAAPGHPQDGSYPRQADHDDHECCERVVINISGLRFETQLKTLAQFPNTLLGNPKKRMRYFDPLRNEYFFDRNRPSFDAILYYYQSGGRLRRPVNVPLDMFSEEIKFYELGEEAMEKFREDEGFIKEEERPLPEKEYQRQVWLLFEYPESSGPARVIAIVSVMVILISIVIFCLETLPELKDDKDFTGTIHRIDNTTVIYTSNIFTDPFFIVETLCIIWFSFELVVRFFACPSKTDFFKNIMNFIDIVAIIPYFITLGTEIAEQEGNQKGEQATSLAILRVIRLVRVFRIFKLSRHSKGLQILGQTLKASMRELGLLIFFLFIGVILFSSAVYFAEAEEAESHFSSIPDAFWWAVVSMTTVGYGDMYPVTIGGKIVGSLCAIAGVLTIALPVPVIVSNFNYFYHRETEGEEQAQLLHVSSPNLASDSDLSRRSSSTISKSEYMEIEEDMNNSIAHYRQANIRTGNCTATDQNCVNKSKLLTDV

For `CCCCC/C=C\C/C=C\C/C=C\C/C=C\CCCC(=O)O` [arachidonic acid], the “Peak amplitude (μA ± SEM)” value turned out to be 21 ± 3 μA.
